Columns and labels:
[1] = in vivo; cited from earlier work
[2] = format: in vitro ADME, hairless guinea pig
Experimental: Aliquots (100 μg) of peptide were incubated at 37° C. with skin extract (1 mL) over the indicated periods of time. The remaining peptide was separated and quantified by HPLC. The data represent averages of duplicate experiments;
The incubation of peptides (PTH(1-34), left panel and PTH(1-34) amide, right panel) with skin extracts, over the indicated times, was conducted as described in Example 2. Fractions containing the peaks were collected, lyophilized and the masses were determined by MALDI-TOF.
Hairless guinea pig skin extracts (1 mL aliquots) were prepared from samples of plasma and skin extracts, respectively, and stored at about −20° C. Stock solutions of hPTH(1-34), hPTH(1-34)NH2, hPTH (1-34)NH-propyl, and hPTH (1-34)NH-phenylpropyl were prepared in HPLC-grade water to achieve a concentration of 10 mg of peptide/mL. Aliquots of skin extracts (1 ml) were incubated at 37° C. for 10 minutes prior to the addition of peptide (100 μg; 10 μL stock solution) or water (10 μL) (control). […]
The lyophilized samples were resuspended in 200 μL of 0.1 N acetic acid and centrifuged at 13,000 g for 15 minutes at room temperature. […] Fractions containing the metabolites of PTH derivatives were collected, concentrated by lyophilization and their masses determined by MALDI-TOF MS (using Voyager-DE Perseptive Biosystems according to the manufacture's procedure).

Substance	potency in anabolic actions on the bone relative to PTH(1-34) [1]	stimulation of resorption markers [1]	site of degradation by skin proteases [2]
PTH (1-31)	as potent as PTH(1-34)	without stimulating resorption markers	–
hPTH(1-34) [PTH (1-34)]	–	–	takes place at the carboxyterminal end
